Measurements as given in EP0168965B1, “4(5)-substituted imidazoles” (ELI LILLY AND COMPANY, priority 1984, dated 1986).

Key:
[1] = target: T1, aromatase (Rattus norvegicus, UniProt P22443); experiment: Aromatase inhibition in the rat ovarian microsome assay; type: biochemical; conditions: read-out: EC50 (the source's name)
T1 construct: ovarian microsomes are obtained from rats treated with pregnant mares serum gonadotropin; from tissue; host or cells: rat ovarian microsomes (rats treated with pregnant mares serum gonadotropin)
T1 sequence (P22443 1-508): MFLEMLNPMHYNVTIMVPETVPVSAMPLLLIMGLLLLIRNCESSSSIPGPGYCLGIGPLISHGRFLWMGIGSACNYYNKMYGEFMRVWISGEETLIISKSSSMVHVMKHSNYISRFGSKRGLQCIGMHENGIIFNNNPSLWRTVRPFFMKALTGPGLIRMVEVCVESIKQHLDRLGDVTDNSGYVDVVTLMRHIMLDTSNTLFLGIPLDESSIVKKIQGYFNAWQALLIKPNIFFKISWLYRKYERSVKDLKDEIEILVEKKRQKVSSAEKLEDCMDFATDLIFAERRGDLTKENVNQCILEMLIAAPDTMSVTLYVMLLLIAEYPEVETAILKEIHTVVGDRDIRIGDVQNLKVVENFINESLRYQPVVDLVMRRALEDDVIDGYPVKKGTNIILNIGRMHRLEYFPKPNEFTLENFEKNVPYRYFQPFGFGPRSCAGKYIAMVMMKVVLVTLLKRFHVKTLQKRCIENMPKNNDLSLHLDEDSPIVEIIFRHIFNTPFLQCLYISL
Experimental: In this test system, ovarian microsomes are obtained from rats treated with pregnant mares serum gonadotropin. Test compounds are added to reaction vials containing 0.1 µM 4-androstene-3,17-dione, 100,000 dpm 1,2[^3H]-androstenedione, the microsomes and a NADPH generating system. The concentrations of the inhibitors tested ranged between 0.005 and 10 um.

[2] = system: synthesis of estrogens; experiment: Estrogen synthesis inhibition in rats (uterine weight and ovarian steroid concentrations); type: in vivo, Immature female Wistar rats; conditions: for Mean Steroid Concentration estradiol / Mean Steroid Concentration estriol / Mean Steroid Concentration estrone: ovaries
Experimental: Immature female Wistar rats (45-55 grams) were divided into control and test groups of 4-5 animals each. Test compounds were administered for seven days daily by gavage in corn oil. Control animals received corn oil without the test compound. Beginning on the fourth day of the test, all animals treated with the test compound and one half of the control animals were given a subcutaneous injection of 1.0 mg of testosterone propionate in corn oil. The remaining control animals received only an equivalent volume of corn oil. On the seventh day of the test, rats treated with testosterone propionate were injected subcutaneously with 100 µCi of [^3H]-testosterone in 50 pl of 3:1 (v/v) saline-ethanol.
After two hours, the animals were killed by decapitation. Uteri were isolated, trimmed of extraneous connective tissue, and weighed. […] In the control animals treated with testosterone propionate, estrogens produced by aromatization stimulated the uterus resulting in an increase in weight.
Ovaries from rats treated with [^3H]-testosterone were excised, cleaned of extraneous tissue, and homogenized in 2.5 ml of a 1.0 mM potassium phosphate buffer containing 3.0 mM MgC12-6H20, 320 mM sucrose, and 0.25% Triton X-100 (polyethylene glycol p-isooctyl phenyl ether, Rohm and Haas) at pH 6.5. The ovarian steroids were extracted with 1.5 ml of 9:1 (v/v) toluene/ethanol to which had been added 25 to 100 mcg each of unlabelled estradiol, estriol, and estrone, and approximately 1000 dpm of [^14C]-estradiol. The samples were vortexed, centrifuged at 500 x g for 10 minutes, and the organic phase was transferred to a conical vial. Two additional extractions were performed on the residue in the same way. The pooled organic extracts were evaporated for subsequent thin-layer chromatography.
Ovarian proteins were precipitated by the addition of 5.0 ml of ethanol to the remaining aqueous phase. After an overnight incubation at 4°C, the samples were centrifuged at 1500 x g for 10 minutes. The supernatant was discarded and the pellet was dissolved in 0.3 N potassium hydroxide. Protein was determined according to the method of Bradford, Analytical Biochemistry, 72, 248 (1976).
The organic residue from each above extraction was redissolved in 9:1 (v/v) dichioromethane/ methanol. The solution of each sample was applied to separate silica gel thin layer chromatography plates which contained a fluorescent indicator. The plates were developed in the first dimension with 160:38:1.5:0.5 (v/v/v/v) dichloromethane/ethyl acetate/methanol/acetic acid to within 3 cm of the top of the plate. After air-drying, the plate was developed in the second dimension with 180:19:1 (v/v/v) dichloromethane/methanol/ammonium hydroxide. The plate was air-dried and viewed under 254 nm UV light.
The visible spots were marked and the plates were sprayed with primulin (0.001% in 4:1 v/v acetone/ water) according to the method of Wright, J. Chromatography, '59, 220 (1971) which allowed for the identification of additional steroids under 365 nm UV light. The spots were scraped from the plate using a glass wool plugged Pasteur pipet attached to a vacuum line. The steroids were eluted directly into scintillation vials by the addition of 0.2 ml of dichloromethane followed by two washes each of 2.0 ml of methanol. The organic solvent was evaporated and 10.0 ml of scintillation fluid (Beckman Ready Solv-NA) was added to the vials. Samples were analyzed by liquid scintillation spectrometry. Corrections were made based on the recoveries of the [^14C]-steroid. Steroid concentrations are expressed as femtomoles per milligram protein.

[3] = 1 mg/kg p.o. by gavage daily for seven days
[4] = 3 mg/kg p.o. by gavage daily for seven days
[5] = 10 mg/kg p.o. by gavage daily for seven days
[6] = 30 mg/kg p.o. by gavage daily for seven days
[7] = 100 mg/kg p.o. by gavage daily for seven days

Fc1ccc(C(c2ccc(F)cc2)c2c[nH]cn2)cc1 [Example 1, 4(5)-[Bis(4-fluorophenyl)methyl]-1H-imidazole]
IC50 [1]: < 50 nM

Fc1ccc(C(c2ccc(Cl)cc2)c2c[nH]cn2)cc1 (stereo not shown) [Example 2, 4(5)-[(4-Chlorophenyl)(4-fluorophenyl)methyl]imidazole]
IC50 [1]: < 50 nM

OC(c1ccc(Cl)cc1)(c1ccc(Cl)cc1)c1c[nH]cn1 [Example 3, a,a-bis(4-chlorophenyl)-4(5)-imidazolemethanol]
Mean Steroid Concentration estradiol [2, 3]: 0.35 femtomoles per milligram of protein | Mean Steroid Concentration estriol [2, 3]: 0.132 femtomoles per milligram of protein | Mean Steroid Concentration estrone [2, 3]: 0.00 femtomoles per milligram of protein | Mean Uterine Weight ([2]; 1 mg/kg p.o. by gavage daily for seven days, testosterone propionate-treated rats): 214.2 mg | Mean Steroid Concentration estradiol [2, 4]: 0.31 femtomoles per milligram of protein | Mean Steroid Concentration estriol [2, 4]: 0.383 femtomoles per milligram of protein | Mean Steroid Concentration estrone [2, 4]: 0.05 femtomoles per milligram of protein | Mean Uterine Weight (mg) ([2]; 3 mg/kg p.o. by gavage daily for seven days, testosterone propionate-treated rats): 158.8^+ mg | Mean Steroid Concentration estradiol [2, 5]: 0.19^+ femtomoles per milligram of protein | Mean Steroid Concentration estriol [2, 5]: 0.218 femtomoles per milligram of protein | Mean Steroid Concentration estrone [2, 5]: 0.03 femtomoles per milligram of protein | Mean Uterine Weight (mg) ([2]; 10 mg/kg p.o. by gavage daily for seven days, testosterone propionate-treated rats): 131.2^+ mg | Mean Steroid Concentration estradiol [2, 6]: 0.22 femtomoles per milligram of protein | Mean Steroid Concentration estriol [2, 6]: 0.391 femtomoles per milligram of protein | Mean Steroid Concentration estrone [2, 6]: 0.07 femtomoles per milligram of protein | Mean Uterine Weight (mg) ([2]; 30 mg/kg p.o. by gavage daily for seven days, testosterone propionate-treated rats): 96.2^+ mg | Mean Steroid Concentration estradiol [2, 7]: 0.10^+ femtomoles per milligram of protein | Mean Steroid Concentration estriol [2, 7]: 0.534^+ femtomoles per milligram of protein | Mean Steroid Concentration estrone [2, 7]: 0.36^+ femtomoles per milligram of protein | Mean Uterine Weight (mg) ([2]; 100 mg/kg p.o. by gavage daily for seven days, testosterone propionate-treated rats): 79.5^+ mg
